Results as given in paper PMC11124822, “Discovery and Anticancer Screening of Novel Oxindole-Based Derivative Bearing Pyridyl Group as Potent and Selective Dual FLT3/CDK2 Kinase Inhibitor” (Pharmaceuticals, 2024).

Target: T1, FLT3 (Homo sapiens, UniProt P36888)
T1 construct: purchased Invitrogen/Life Technologies
T1 sequence (P36888 27-993): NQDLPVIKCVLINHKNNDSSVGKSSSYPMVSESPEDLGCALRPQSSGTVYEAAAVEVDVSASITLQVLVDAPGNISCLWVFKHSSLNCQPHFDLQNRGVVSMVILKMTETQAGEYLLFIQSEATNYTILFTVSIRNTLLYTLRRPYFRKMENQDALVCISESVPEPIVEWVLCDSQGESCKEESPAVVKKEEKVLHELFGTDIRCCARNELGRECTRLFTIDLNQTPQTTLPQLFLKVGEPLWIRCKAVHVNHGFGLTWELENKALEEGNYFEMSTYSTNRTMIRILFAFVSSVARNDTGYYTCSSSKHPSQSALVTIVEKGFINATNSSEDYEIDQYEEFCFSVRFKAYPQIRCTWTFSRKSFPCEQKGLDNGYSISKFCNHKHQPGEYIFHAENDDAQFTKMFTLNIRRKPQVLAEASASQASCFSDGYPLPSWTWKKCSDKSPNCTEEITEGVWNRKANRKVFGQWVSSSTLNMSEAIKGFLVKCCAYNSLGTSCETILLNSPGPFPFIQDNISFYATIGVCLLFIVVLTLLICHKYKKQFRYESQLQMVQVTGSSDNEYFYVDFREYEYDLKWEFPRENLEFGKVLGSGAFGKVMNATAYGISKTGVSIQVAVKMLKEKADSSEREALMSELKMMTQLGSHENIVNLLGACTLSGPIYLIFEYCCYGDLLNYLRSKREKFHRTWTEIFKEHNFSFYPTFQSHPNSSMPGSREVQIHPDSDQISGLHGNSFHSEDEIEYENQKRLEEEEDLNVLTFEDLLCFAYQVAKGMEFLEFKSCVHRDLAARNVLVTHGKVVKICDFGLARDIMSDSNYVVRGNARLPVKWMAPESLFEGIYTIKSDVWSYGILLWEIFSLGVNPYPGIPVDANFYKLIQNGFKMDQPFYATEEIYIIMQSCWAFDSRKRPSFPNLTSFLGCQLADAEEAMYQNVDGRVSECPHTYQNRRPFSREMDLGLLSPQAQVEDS
Assay: Z'-LYTE kinase assay
Format: biochemical
Procedure: The Z’-LYTE® technology, which relies on FRET (Fluorescence Resonance Energy Transfer) from Invitrogen/Life Technologies, was employed for this evaluation for all kinases except VEGFR-2. The VEGFR-2 kinase assay was conducted in a 96-well streptavidin-coated plate using a recombinant human VEGFR-2/KDR ELISA kit, following the manufacturer’s instructions. […] Statistical significance was assessed using one-way analysis of variance (ANOVA), followed by the Dunnett test; data are represented as means ± SD.

Work on `O=C1Nc2cc(Cl)ccc2C1=Cc1ccc(OCc2cccnc2)cc1` (mixture of isomers) [Compound 5l, (E/Z)-6-Chloro-3-[4-(pyridin-3-ylmethoxy)benzylidene] indolin-2-one] yielded an inhibition at 10 µM (10 µM, FLT3) of 92.6% and an IC50 (three separate experiments ± SD) of 36.2 ± 1.07 nM.
